Where “and” joins values, the source holds several entries; their conditions need not be identical. Equal entries are not always repeated. Where two headings read alike, the source gives them in different places.
Assays:
[1] = target: T1, human recombinant adrenergic α2B receptor (Homo sapiens, UniProt P18089); assay: Radioligand binding, adrenergic α2B ([3H]Rauwolscine); settings: for inhibition at 0.03 µM / inhibition at 0.1 µM / Percentage inhibition of ligand binding, Adrenergic α2B / Percentage inhibition of ligand binding, Adrenergic α2B (0.1 μM): [3H]Rauwolscine; for Ki: read-out: Ki α2B
T1 construct: expressed in transfected cells; host or cells: CHO-K1
T1 sequence (P18089 1-450): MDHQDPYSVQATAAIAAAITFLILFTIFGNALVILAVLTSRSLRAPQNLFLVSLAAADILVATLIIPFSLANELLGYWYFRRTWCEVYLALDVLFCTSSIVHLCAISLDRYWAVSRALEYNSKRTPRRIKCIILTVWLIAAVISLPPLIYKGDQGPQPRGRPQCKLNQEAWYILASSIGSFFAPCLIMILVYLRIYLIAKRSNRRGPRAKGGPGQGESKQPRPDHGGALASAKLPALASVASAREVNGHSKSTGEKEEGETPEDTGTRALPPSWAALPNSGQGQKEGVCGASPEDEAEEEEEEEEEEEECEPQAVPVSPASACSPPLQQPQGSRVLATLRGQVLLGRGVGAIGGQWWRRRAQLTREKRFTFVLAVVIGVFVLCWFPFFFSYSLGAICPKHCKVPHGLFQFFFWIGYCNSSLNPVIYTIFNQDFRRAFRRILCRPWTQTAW
Summary of the method: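 Readout: percent inhibition of specific [3H]Rauwolscine binding, measured by filtration and counting. Conditions: CHO-K1 cell-expressed receptor, 2.5 nM radioligand, 60 min, 25° C, Tris-HCl pH 7.4 buffer with MgCl2, EDTA, BSA. Non-specific binding: 10 μM Prazosin.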

[2] = target: T2, rat adrenergic α1B receptor (Rattus norvegicus, UniProt P15823); assay: Radioligand binding, adrenergic α1B ([3H]Prazosin); settings: [3H]Prazosin
T2 construct: rat adrenergic α1B receptor obtained from Wistar Rat liver; from tissue; host or cells: Wistar rat liver
T2 sequence (P15823 1-515): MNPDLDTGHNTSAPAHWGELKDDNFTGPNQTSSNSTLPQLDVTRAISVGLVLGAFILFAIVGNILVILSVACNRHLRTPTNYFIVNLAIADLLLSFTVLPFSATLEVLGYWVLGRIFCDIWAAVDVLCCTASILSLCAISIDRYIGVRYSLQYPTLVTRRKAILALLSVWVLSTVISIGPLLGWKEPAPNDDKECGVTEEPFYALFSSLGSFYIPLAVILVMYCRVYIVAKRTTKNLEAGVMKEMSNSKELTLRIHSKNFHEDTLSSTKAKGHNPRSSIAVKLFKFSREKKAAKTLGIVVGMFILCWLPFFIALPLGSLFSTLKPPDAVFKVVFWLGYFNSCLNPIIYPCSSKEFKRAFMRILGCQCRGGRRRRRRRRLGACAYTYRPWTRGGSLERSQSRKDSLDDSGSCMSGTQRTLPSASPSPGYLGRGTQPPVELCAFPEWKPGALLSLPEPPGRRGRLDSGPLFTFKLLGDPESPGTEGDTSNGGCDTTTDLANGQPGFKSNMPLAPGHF
Summary of the method: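 Rat α1B receptor from Wistar rat liver was incubated with 0.25 nM [3H]prazosin for 60 min at 25 °C in 50 mM Tris-HCl, pH 7.4, 0.5 mM EDTA. Non-specific binding was defined with 10 μM phentolamine. Bound radioligand was measured by filtration and counting, reported as percent inhibition of specific binding.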

[3] = target: T3, human recombinant adrenergic α1D receptor (Homo sapiens, UniProt P25100); assay: Radioligand binding, adrenergic α1D ([3H]Prazosin); settings: [3H]Prazosin
T3 construct: expressed in transfected cells; host or cells: HEK-293
T3 sequence (P25100 1-572): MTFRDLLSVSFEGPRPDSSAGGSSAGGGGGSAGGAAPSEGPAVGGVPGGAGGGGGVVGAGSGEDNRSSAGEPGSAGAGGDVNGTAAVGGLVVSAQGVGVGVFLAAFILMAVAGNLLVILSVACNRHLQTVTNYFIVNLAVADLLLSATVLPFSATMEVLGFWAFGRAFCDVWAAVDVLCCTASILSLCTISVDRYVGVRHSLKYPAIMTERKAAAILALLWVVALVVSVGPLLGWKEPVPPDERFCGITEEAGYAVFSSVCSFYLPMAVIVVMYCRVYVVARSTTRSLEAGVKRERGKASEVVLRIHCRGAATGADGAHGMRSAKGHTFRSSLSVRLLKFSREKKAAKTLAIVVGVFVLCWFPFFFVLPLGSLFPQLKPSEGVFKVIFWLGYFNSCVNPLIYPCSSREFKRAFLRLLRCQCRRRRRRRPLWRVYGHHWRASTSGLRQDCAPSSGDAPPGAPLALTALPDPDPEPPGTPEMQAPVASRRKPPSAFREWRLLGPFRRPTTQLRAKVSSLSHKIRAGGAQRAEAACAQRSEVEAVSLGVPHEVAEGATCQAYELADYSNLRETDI
Method: Compounds were incubated with 0.6 nM [3H]Prazosin for 60 min at 25° C. Non-specific binding was estimated in the presence of 10 μM phentolamine. Receptor proteins were filtered and washed, the filters were then counted to determine [3H]Prazosin specifically bound. […] Biochemical assay results are presented as the percent inhibition of specific binding in Table B1.

[4] = read-out: Percentage inhibition of ligand binding, Adrenergic α2B (0.03 μM), compound at 0.03 μM, repeat datapoints each shown
[5] = read-out: Percentage inhibition of ligand binding, Adrenergic α2B (0.1 μM), compound at 0.1 μM, repeat datapoints each shown
[6] = compound at 0.1 μM, repeat datapoints each shown, 0.1 µM
[7] = read-out: Percentage inhibition of ligand binding, Adrenergic α1B (0.1 μM), compound at 0.1 μM, repeat datapoints each shown
[8] = read-out: Percentage inhibition of ligand binding, Adrenergic α1D (0.1 μM), compound at 0.1 μM, repeat datapoints each shown
[9] = compound at 0.03 μM, repeat assays, each datapoint shown, read-out: Percentage inhibition of ligand binding, Adrenergic α2B
[10] = compound at 0.1 μM, repeat assays, each datapoint shown, 0.1 µM
[11] = compound at 0.1 μM, repeat assays, each datapoint shown, read-out: Percentage inhibition of ligand binding, Adrenergic α2B
[12] = compound at 0.03 μM, repeat assays, each datapoint shown, read-out: Percentage inhibition of ligand binding, Adrenergic α1B
[13] = compound at 0.1 μM, repeat assays, each datapoint shown, read-out: Percentage inhibition of ligand binding, Adrenergic α1B
[14] = compound at 0.1 μM, repeat assays, each datapoint shown, read-out: Percentage inhibition of ligand binding, Adrenergic α1D
[15] = compound at 0.03 μM, repeat assays, each datapoint shown, 0.03 µM
[16] = compound at 0.03 μM, repeat assays, each datapoint shown, read-out: Percentage inhibition of ligand binding, Adrenergic α1D

SMILES	inhibition at 0.1 µM [1, 5] [%]	Percentage inhibition of ligand binding, Adrenergic α1B (0.1 μM) [2, 6] [%]	inhibition at 0.1 µM [2, 7] [%]	inhibition at 0.1 µM [3, 8] [%]	inhibition at 0.03 µM [1, 9] [%]	Percentage inhibition of ligand binding, Adrenergic α2B [1, 10] [%]	inhibition at 0.1 µM [1, 11] [%]	Ki [1]	inhibition at 0.03 µM [2, 12] [%]	Percentage inhibition of ligand binding, Adrenergic α1B [2, 10] [%]	inhibition at 0.1 µM [2, 13] [%]	inhibition at 0.1 µM [3, 14] [%]	Percentage inhibition of ligand binding, Adrenergic α2B (0.1 μM) [1, 6] [%]	further results
Cc1cnc2c(c1)c1c(n2CCc2ccc(C)nc2)CCN(C)C1 [II-110, 3,6-dimethyl-9-(2-(6-methylpyridin-3-yl)ethyl)-6,7,8,9-tetrahydro-5H-pyrrolo[2,3-b:4,5-c′]dipyridine]	47	36	25	17										inhibition at 0.03 µM [1, 4]: 11%
Cc1ccc2c(c1)c1c(n2CC(O)c2ccncc2)CCN(C)C1 (stereo not shown) [compound 3]					99	103	100	0.64 nM	24	54	51	12		
Cc1ccc2c(c1)c1c(n2CC(C)(O)c2cccnc2)CCN(C)C1 (stereo not shown) [compound 5, 1-(1,2,3,4-tetrahydro-2,8-dimethylpyrido[4,3-b]indol-5-yl)-2-(pyridin-3-yl)propan-2-ol]					100		96			21	14	4		
Cc1ccc2c(c1)c1c(n2CCc2cccnc2)CCN(C)C1 [compound 61]					65	94	85	5.89 nM	28		60	37		Percentage inhibition of ligand binding, Adrenergic α2B [1, 15]: 80%; inhibition at 0.03 µM [3, 16]: 14%
Cc1ccc2c(c1)c1c(n2CC2(c3ccccc3)OCCO2)CCN(C)C1 [compound 83]					63		78			15	9	13		
CCN1CCc2c(c3cc(C)ccc3n2CCc2ccncc2)C1 [compound 85]					40		60		-3		26	17		
Cc1ccc2c(c1)c1c(n2CCc2ccc(CO)nc2)CCN(C)C1 [compound 91]	87		58	32	53	83	82	9.84 nM and 10.7 nM and 12 nM	25	53	52	25		Percentage inhibition of ligand binding, Adrenergic α2B [1, 15]: 56%; Percentage inhibition of ligand binding, Adrenergic α1B [2, 15]: 28%; inhibition at 0.03 µM ([2]; read-out: Percentage inhibition of ligand binding, Adrenergic α1B (0.03 μM), compound at 0.03 μM, repeat datapoints each shown): 32%; Percentage inhibition of ligand binding, Adrenergic α1D [3, 15]: 11%; inhibition at 0.03 µM [3, 16]: 7%; Percentage inhibition of ligand binding, Adrenergic α1D [3, 10]: 30%; inhibition at 0.03 µM ([3]; read-out: Percentage inhibition of ligand binding, Adrenergic α1D (0.03 μM), compound at 0.03 μM, repeat datapoints each shown): 21%
Cc1ccc2c(c1)c1c(n2CC(C)(O)c2ccc(O)cc2)CCN(C)C1 (stereo not shown) [compound 98]	96	83	81	31									103	Percentage inhibition of ligand binding, Adrenergic α1D (0.1 μM) [3, 6]: 35%
C/C(=C\n1c2c(c3cc(C)ccc31)CN(C)CC2)c1ccncn1 [compound 101]	63	79	61	45									76	Percentage inhibition of ligand binding, Adrenergic α1D (0.1 μM) [3, 6]: 48%
Cc1ccc2c(c1)c1c(n2C2=C(c3ccncc3)CCC2)CCN(C)C1 [compound 114]	58		15	15				17.4 nM					71	inhibition at 0.03 µM [1, 4]: 42%

Reference: patent publication US8791132B2, “Compounds and methods for treatment of hypertension” (Medivation Technologies, Inc., priority 2011, dated 2014)
